# Measurements reported in ChEMBL document CHEMBL5653615 (J Biol Chem, 2013).
# Assays:
# [1] = biological target: Activated CDC42 kinase 1 (Homo sapiens) (UniProt Q07912); test: Inhibition of human ACK1 at 500 nM by HotSpot assay relative to control
# [2] = biological target: Calcium/calmodulin-dependent protein kinase type 1G (Homo sapiens) (UniProt Q96NX5); test: Inhibition of human CAMK1g at 500 nM by HotSpot assay relative to control
# [3] = biological target: Casein kinase I isoform alpha (Homo sapiens) (UniProt P48729); test: Inhibition of human CK1a1 at 500 nM by HotSpot assay relative to control
# Chain of Casein kinase I isoform alpha (Homo sapiens) (P48729 2-337 limits assumed): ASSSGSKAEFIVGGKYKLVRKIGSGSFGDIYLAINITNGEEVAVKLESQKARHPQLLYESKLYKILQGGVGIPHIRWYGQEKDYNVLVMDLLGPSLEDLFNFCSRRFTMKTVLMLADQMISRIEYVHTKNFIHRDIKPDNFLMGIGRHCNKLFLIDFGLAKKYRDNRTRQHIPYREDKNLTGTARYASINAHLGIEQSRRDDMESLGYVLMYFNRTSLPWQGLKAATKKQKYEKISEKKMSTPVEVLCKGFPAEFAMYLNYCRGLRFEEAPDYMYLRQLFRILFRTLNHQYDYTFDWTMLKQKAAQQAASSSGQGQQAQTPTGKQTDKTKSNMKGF
# [4] = biological target: T1, G protein-coupled receptor kinase 3 (Homo sapiens) (UniProt P35626); test: Inhibition of human GRK3 at 500 nM by HotSpot assay relative to control
# T1 sequence (whole entry): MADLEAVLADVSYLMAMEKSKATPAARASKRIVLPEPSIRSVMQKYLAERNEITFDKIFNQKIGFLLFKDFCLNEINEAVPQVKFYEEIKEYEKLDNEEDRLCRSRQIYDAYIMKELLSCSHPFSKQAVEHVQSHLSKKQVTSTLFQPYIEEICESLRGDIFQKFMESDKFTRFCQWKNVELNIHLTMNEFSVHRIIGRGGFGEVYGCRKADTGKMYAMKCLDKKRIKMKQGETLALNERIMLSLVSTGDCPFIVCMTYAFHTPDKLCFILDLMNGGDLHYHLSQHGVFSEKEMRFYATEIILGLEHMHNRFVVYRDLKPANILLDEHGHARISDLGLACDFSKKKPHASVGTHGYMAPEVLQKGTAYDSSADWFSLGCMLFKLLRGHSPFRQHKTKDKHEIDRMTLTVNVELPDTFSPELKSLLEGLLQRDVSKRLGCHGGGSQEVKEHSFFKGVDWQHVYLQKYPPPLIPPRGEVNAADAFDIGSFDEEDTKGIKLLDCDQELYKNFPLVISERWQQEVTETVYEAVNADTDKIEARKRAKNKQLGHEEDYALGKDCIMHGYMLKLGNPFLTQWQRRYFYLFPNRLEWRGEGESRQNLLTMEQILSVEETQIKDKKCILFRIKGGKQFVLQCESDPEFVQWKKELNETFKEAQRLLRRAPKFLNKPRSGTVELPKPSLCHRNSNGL
# [5] = biological target: G protein-coupled receptor kinase 4 (Homo sapiens) (UniProt P32298); test: Inhibition of human GRK4 at 500 nM by HotSpot assay relative to control
# Chain of G protein-coupled receptor kinase 4 (Homo sapiens) (P32298 whole entry, looked up): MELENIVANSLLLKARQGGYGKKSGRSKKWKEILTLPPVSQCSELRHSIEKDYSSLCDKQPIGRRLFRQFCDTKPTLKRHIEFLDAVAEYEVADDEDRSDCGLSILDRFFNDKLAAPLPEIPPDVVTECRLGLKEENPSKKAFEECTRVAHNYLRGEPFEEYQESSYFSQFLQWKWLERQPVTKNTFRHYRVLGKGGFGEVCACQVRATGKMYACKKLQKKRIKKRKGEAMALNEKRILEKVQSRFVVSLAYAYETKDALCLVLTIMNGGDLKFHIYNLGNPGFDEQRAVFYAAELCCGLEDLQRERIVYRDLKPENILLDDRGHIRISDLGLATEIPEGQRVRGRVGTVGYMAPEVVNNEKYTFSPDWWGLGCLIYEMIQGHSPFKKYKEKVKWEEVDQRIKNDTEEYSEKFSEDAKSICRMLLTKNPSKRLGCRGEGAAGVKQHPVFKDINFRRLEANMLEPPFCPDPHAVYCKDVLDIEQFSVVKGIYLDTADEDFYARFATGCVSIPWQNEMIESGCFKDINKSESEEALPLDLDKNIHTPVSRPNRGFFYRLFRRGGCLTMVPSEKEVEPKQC
# [6] = biological target: Vascular endothelial growth factor receptor 2 (Homo sapiens) (UniProt P35968); test: Inhibition of human KDR at 500 nM by HotSpot assay relative to control
# Chain of Vascular endothelial growth factor receptor 2 (Homo sapiens) (P35968 whole entry): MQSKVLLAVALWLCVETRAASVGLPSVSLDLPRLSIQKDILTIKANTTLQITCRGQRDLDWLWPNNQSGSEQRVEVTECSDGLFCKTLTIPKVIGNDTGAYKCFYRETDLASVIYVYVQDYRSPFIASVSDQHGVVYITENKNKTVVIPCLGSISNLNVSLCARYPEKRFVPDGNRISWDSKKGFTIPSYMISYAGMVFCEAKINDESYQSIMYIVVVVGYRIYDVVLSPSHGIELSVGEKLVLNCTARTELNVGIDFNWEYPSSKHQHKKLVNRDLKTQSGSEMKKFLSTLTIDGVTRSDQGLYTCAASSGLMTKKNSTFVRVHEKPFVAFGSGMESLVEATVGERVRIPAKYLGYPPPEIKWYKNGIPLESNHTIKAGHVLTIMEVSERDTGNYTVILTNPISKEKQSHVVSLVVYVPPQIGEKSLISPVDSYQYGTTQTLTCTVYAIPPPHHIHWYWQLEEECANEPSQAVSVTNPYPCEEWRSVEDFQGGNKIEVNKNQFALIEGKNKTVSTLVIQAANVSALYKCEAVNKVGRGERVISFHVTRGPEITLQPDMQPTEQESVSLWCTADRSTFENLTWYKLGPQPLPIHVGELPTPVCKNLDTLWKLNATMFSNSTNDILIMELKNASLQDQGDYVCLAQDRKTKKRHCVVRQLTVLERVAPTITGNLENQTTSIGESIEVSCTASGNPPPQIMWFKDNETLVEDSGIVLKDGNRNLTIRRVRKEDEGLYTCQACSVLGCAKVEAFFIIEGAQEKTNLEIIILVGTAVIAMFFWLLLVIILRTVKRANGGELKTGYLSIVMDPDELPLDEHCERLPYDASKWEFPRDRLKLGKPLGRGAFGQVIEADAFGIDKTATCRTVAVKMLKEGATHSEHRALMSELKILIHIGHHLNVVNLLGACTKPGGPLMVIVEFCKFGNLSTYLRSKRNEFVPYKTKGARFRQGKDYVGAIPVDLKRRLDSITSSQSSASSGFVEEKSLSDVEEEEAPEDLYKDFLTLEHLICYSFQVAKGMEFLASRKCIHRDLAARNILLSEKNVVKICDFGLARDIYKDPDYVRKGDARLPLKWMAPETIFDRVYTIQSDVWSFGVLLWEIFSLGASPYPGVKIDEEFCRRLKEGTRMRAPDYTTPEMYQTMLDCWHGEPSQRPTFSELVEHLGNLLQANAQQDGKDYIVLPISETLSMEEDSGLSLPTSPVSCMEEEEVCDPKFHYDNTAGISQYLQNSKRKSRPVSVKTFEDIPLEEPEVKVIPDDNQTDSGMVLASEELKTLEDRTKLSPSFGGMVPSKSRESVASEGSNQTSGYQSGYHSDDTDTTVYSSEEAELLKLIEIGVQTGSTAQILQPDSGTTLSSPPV
# [7] = biological target: Tyrosine-protein kinase Lyn (Homo sapiens) (UniProt P07948); test: Inhibition of human LYN at 500 nM by HotSpot assay relative to control
# Chain of Tyrosine-protein kinase Lyn (Homo sapiens) (P07948 2-512 limits assumed): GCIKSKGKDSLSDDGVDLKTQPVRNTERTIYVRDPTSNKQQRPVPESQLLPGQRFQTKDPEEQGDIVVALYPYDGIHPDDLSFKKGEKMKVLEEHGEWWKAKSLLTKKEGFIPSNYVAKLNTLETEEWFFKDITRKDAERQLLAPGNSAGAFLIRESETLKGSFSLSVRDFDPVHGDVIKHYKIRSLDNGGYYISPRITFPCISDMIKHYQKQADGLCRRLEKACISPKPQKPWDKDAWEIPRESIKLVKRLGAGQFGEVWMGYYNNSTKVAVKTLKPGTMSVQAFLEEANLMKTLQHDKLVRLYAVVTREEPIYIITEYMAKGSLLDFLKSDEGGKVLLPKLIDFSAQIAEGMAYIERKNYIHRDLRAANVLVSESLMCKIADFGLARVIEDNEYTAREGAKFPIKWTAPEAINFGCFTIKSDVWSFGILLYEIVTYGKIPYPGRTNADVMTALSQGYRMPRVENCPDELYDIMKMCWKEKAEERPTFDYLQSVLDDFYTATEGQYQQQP
# [8] = biological target: Serine/threonine-protein kinase pim-1 (Homo sapiens) (UniProt P11309); test: Inhibition of human PIM1 at 500 nM by HotSpot assay relative to control
# Chain of Serine/threonine-protein kinase pim-1 (Homo sapiens) (P11309 whole entry, looked up): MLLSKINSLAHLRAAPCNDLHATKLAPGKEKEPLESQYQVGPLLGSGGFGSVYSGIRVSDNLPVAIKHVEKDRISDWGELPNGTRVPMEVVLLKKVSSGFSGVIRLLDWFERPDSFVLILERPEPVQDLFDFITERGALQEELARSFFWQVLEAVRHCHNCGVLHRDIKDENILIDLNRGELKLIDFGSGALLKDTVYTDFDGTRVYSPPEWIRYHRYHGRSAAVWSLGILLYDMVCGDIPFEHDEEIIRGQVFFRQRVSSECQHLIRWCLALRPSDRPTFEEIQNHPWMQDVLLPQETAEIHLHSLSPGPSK
# [9] = biological target: T2, cAMP-dependent protein kinase catalytic subunit PRKX (Homo sapiens) (UniProt P51817); test: Inhibition of human PRKX at 500 nM by HotSpot assay relative to control
# T2 sequence (whole entry): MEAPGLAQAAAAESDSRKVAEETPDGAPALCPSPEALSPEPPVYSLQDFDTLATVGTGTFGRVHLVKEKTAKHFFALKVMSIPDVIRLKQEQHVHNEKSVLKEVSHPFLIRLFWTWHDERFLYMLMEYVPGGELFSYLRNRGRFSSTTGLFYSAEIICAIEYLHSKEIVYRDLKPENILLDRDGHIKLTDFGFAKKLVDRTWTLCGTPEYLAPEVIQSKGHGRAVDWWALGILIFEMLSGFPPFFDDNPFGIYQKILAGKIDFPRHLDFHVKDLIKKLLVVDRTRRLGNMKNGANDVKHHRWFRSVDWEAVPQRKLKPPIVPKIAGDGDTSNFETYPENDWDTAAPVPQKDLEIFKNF
# [10] = biological target: Proto-oncogene tyrosine-protein kinase receptor Ret (Homo sapiens) (UniProt P07949); test: Inhibition of human RET at 500 nM by HotSpot assay relative to control
# Chain of Proto-oncogene tyrosine-protein kinase receptor Ret (Homo sapiens) (P07949 whole entry): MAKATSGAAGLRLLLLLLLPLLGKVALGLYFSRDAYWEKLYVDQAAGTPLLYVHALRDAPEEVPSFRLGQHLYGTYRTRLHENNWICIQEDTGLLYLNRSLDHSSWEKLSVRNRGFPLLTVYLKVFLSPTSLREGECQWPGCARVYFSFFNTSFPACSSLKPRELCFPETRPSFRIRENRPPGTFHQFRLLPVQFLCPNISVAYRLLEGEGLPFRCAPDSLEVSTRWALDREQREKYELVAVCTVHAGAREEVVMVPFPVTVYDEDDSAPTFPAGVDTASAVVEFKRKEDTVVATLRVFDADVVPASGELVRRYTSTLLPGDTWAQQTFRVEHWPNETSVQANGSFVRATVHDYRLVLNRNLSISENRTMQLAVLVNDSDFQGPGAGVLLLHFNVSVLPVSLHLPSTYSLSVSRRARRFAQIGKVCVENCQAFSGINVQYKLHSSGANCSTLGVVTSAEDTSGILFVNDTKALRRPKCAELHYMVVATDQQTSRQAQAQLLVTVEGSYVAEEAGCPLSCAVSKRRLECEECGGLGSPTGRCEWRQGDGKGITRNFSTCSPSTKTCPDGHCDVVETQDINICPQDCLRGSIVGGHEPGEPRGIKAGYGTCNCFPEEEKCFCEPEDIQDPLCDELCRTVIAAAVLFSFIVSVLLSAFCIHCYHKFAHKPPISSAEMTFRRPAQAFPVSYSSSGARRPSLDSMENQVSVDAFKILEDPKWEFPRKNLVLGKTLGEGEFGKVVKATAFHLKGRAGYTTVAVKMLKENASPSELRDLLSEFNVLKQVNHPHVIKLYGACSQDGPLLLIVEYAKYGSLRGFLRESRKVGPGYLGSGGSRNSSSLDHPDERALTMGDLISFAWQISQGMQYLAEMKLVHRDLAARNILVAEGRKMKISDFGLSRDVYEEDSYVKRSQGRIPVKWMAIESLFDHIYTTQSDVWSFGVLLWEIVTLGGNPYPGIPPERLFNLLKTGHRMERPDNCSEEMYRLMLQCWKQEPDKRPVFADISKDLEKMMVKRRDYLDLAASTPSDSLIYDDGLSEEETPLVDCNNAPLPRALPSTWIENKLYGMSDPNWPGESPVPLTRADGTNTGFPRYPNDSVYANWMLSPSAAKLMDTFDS
# [11] = biological target: T3, Serine/threonine-protein kinase TAO3 (Homo sapiens) (UniProt Q9H2K8); test: Inhibition of human JIK at 500 nM by HotSpot assay relative to control
# T3 sequence (whole entry): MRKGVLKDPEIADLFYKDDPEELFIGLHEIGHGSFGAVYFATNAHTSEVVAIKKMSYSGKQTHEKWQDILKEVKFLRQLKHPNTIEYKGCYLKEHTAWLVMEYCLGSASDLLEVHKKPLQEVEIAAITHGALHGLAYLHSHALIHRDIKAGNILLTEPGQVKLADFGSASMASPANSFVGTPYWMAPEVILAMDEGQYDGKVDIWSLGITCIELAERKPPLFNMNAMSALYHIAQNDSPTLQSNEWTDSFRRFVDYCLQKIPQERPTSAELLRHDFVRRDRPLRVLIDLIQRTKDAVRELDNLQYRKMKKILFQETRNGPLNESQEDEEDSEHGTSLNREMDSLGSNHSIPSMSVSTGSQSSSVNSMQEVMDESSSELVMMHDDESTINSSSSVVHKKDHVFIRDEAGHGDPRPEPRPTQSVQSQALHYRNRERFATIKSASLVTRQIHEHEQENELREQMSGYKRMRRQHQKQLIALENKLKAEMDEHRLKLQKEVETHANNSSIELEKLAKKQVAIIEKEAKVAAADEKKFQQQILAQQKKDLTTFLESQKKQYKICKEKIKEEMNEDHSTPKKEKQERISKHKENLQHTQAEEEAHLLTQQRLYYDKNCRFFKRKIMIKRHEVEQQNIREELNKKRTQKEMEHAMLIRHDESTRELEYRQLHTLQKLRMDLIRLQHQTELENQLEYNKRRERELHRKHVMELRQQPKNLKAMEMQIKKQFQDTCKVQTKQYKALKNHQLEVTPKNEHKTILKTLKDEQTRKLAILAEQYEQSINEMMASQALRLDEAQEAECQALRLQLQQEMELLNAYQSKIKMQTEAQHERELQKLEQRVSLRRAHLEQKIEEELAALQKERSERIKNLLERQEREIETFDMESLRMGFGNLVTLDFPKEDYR
# [12] = biological target: NT-3 growth factor receptor (Homo sapiens) (UniProt Q16288); test: Inhibition of human TRKC at 500 nM by HotSpot assay relative to control
# Chain of Calcium/calmodulin-dependent protein kinase type 1G (Homo sapiens) (Q96NX5 whole entry, canonical isoform): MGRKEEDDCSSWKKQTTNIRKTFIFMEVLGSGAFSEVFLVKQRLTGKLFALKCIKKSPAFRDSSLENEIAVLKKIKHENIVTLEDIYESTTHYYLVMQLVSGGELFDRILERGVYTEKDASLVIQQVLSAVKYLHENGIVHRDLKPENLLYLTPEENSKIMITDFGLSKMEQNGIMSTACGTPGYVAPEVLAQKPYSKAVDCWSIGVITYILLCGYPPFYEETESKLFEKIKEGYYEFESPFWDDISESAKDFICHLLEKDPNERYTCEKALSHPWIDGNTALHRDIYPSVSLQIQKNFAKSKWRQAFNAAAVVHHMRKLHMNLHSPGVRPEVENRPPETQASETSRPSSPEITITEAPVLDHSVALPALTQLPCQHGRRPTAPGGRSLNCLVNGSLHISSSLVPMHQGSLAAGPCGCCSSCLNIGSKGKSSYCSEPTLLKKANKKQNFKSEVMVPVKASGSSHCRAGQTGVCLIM
SMILES,inhibition [1],inhibition [2],inhibition [3],inhibition [4],inhibition [5],inhibition [6],inhibition [7],inhibition [8],inhibition [9],inhibition [10],inhibition [11],inhibition [12]
Nc1n[nH]c2nnc(-c3c(-c4ccccc4)nn4ccccc34)cc12,17.3%,0.77%,-0.27%,-0.84%,-2.71%,-1.19%,5.07%,-0.39%,-0.73%,6.33%,-1.15%,23.4%
Oc1n[nH]c2nnc(-c3c(-c4ccccc4)nn4ccccc34)cc12,8.98%,0.26%,-6.61%,-1.47%,-1.17%,-5.2%,2.29%,0.66%,-3.08%,-3.97%,4.08%,2.25%
